# Columns and labels:
# Type in all cases: in vivo
# [1] = system: adult engorged female ticks (Rhipicephalus microplus); experiment: Rhipicephalus (Boophilus) microplus injection test; settings: 168 h, egg deposition after 7 days, read-out: activity (efficacy: infertile eggs); for pest or weed control at 4 pg: application rate 4 pg/animal; for pest or weed control at 0.02 mg: application rate 20 μg/animal
# Summary of the method: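 Compound in DMSO (10 mg per 0.5 mL, then diluted with DMSO to test concentration); 1 μL injected into the abdomen of each of five engorged females, then held in a climate chamber. Fertile egg deposition checked at 7 days; efficacy 100% = all eggs infertile, 0% = all fertile.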
# [2] = system: adult cat fleas (Ctenocephalides felis); experiment: Ctenocephalides felis in-vitro contact test, adult cat flea; settings: application rate 5 μg/cm^2 (=500 g/ha), after 48 hours, read-out: activity (efficacy: fleas dead or moribund)
# Summary of the method: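 Efficacy, as % of fleas dead or moribund, was read 48 h after 5-10 adult cat fleas were confined in glass tubes whose walls carried dried compound film (900 ppm, […]). Fleas failing to escape upward from a 45-50° C plate within 5 min counted as dead or moribund.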
# [3] = system: adult unfed cat fleas (Ctenocephalides felis); experiment: Ctenocephalides felis oral test; settings: 48 h, read-out: activity (mortality)
# Summary of the method: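 About 20 adult unfed fleas fed through parafilm on cattle blood containing compound (DMSO stock diluted in blood), blood held at 37 °C and fleas at room temperature. Mortality (%) scored after 2 days.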
# [4] = system: larvae of the banded cucumber beetle (Diabrotica balteata); experiment: Diabrotica balteata spray test; settings: 168 h, after 7 days, read-out: activity (efficacy: seedlings grown); for pest or weed control at 100 g/ha: application rate 100 g/ha (=32 pg/well); for pest or weed control at 500 g/ha: application rate 500 g/ha (=160 pg/well)
# Summary of the method: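 Read-out is % efficacy at day 7, 0% meaning no seedling growth and 100% growth equal to uninfested untreated controls. Test solutions (acetone/DMF concentrate diluted with water carrying 1000 ppm emulsifier) were sprayed onto 1-day-germinated wheat seeds, 5 per well, before infestation with 10-20 larvae.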
# [5] = system: green peach aphid (Myzus persicae); experiment: Myzus persicae oral test; settings: 120 h, application rate 4 ppm, after 5 days
# Summary of the method: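 Five-day oral feeding assay measuring percent mortality of a mixed aphid population that draws compound-containing sugared IPL41 medium through sealing parafilm; the test preparation derives from 1 part compound per 100 parts acetone, diluted with water.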
# [6] = system: larvae of the southern green stink bug (Nezara viridula); experiment: Nezara viridula spray test; settings: 96 h, after 4 days; for mortality at 100 g/ha: application rate 100 g/ha
# Summary of the method: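 Larva-infested barley (Hordeum vulgare) plants received a spray of test solution prepared from an acetone/DMF concentrate diluted in emulsifier-containing water (1000 ppm). Percent kill read 4 days later; 0% means no stink bugs dead.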
# [7] = system: Aedes aegypti strain MONHEIM; experiment: Aedes aegypti test (AEDSAE surface treatment & contact assay); settings: 24 hours after contact, read-out: efficacy (mortality); for mortality at 4 mg/m2: surface concentration 4 mg/m^2, exposure 30 minutes; for mortality at 20 mg/m2: surface concentration 20 mg/m^2, exposure 30 minutes
# Summary of the method: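 Percent mortality was read 24 h after adult MONHEIM mosquitoes were held for 30 min on a tile treated with compound. Compound applied from acetone solution (2 mg/ml) containing 2000 ppm rapeseed oil methyl ester, after evaporation.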
# [8] = system: Anopheles funestus strain FUMOZ-R; experiment: Anopheles funestus test (ANPHFU surface treatment & contact assay); settings: 24 hours after contact, read-out: efficacy (mortality); for mortality at 4 mg/m2: surface concentration 4 mg/m^2, exposure 30 minutes; for mortality at 20 mg/m2: surface concentration 20 mg/m^2, exposure 30 minutes
# Method: Anopheles funestus Test (ANPHFU Surface Treatment & Contact Assay)
# (§1) Solvent: Aceton+2000 ppm rapeseed oil methyl ester (RME)
# In order to produce a sufficient, active ingredient containing solution it is necessary to solve the test compound in the solvent-mix (acetone at 2 mg/ml/RME 2000 ppm). This solution is pipetted onto a glazed tile and after evaporation of the acetone, adult mosquitoes of the species Anopheles funestus strain FUMOZ-R (Hunt et al., Med. Vet. Entomol. 2005 September; 19(3): 271-275) are placed onto the dried surface. The exposure time is 30 minutes. Mortality in percent (%) is determined 24 hours after contact of the insects to the treated surface. 100% mortality means that all tested insects are dead, whereas 0% means that no insect died.
# [9] = system: Blattella germanica strain PAULINIA; experiment: whole plant or invertebrate; settings: read-out: efficacy (mortality)
# Method: Blattella germanica Test (BLTTGE Surface Treatment & Contact Assay)
# as §1
# In order to produce a sufficient, active ingredient containing solution it is necessary to solve the test compound in the solvent-mix (acetone at 2 mg/ml/RME 2000 ppm). This solution is pipetted onto a glazed tile and after evaporation of the acetone, adult animals of the species Blattella germanica strain PAULINIA are placed onto the dried surface. The exposure time is 30 minutes.
# Mortality in percent (%) is determined 24 hours after contact of the insects to the treated surface. 100% mortality means that all tested insects are dead, whereas 0% means that no insect died.
# [10] = system: adult brown dog ticks (Rhipicephalus sanguineus); experiment: Rhipicephalus sanguineus in-vitro contact test, adult brown dog ticks; settings: after 48 hours, read-out: activity (efficacy: ticks dead or moribund); for pest or weed control at 100 g/ha: application rate 1 pg/cm^2 (=100 g/ha)
# Summary of the method: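 Efficacy is % of adult ticks dead or moribund 48 h after confinement at room temperature in tubes wall-coated from acetone (5 μg/cm² at 900 ppm). Scoring by heat challenge at 45-50 °C up to 5 min; immotile or uncoordinated ticks failing to climb count as affected.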
# [11] = system: green peach aphid (Myzus persicae); experiment: Myzus persicae spray test; settings: 120 h, application rate 500 g/ha, after 5 days
# Summary of the method: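 Chinese cabbage leaf disks carrying all instars of M. persicae sprayed with compound in acetone/DMF, diluted in water with 1000 ppm alkylarylpolyglycol ether emulsifier. Percent mortality scored after 5 days (100% = all aphids killed).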
# [12] = system: two spotted spidermite (Tetranychus urticae); experiment: Tetranychus urticae spray test OP-resistant; settings: 144 h, after 6 days
# Method: Tetranychus urticae—Spray Test OP-Resistant
# Solvent: 78.0 parts by weight acetone • 1.5 parts by weight dimethylformamide
# Emulsifier: alkylarylpolyglycol ether
# To produce a suitable preparation of active compound, 1 part by weight of active compound is mixed with the stated amount of solvents and is diluted with water, containing an emulsifier concentration of 1000 ppm, to the desired concentration. Further test concentrations are prepared by dilution with emulsifier containing water.
# French bean (Phaseolus vulgaris) leaf disks infected with all instars of the two spotted spidermite (Tetranychus urticae), are sprayed with a preparation of the active ingredient of the desired concentration.
# After 6 days mortality in % is determined. 100% means all spider mites have been killed and 0% means none of the spider mites have been killed.
# [13] = system: Culex quinquefasciatus strain P00; experiment: Culex quinquefasciatus test (CULXFA surface treatment & contact assay); settings: 24 hours after contact, read-out: efficacy (mortality)
# Summary of the method: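 Compound in acetone (2 mg/ml) with 2000 ppm rapeseed oil methyl ester, dried onto glazed tile. Adult mosquitoes exposed to the treated surface for 30 min. Percent mortality scored 24 h after contact.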
# [14] = system: Rhipicephalus microplus larvae (strain Parkhurst, resistant against synthetic pyrethroids); experiment: Rhipicephalus (Boophilus) microplus in-vitro contact test, larval cattle tick; settings: after 48 hours, read-out: activity (efficacy: larvae dead or moribund)
# Summary of the method: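 Larvae (20-50 per tube) exposed to dry compound film on glass tube walls, 5 μg/cm^2 at 900 ppm, applied from acetone. After 48 h at 27° C./85% RH, tubes tapped and negative geotaxis scored; efficacy as percent dead or moribund larvae.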
# [15] = system: fall armyworm larvae (Spodoptera frugiperda); experiment: Spodoptera frugiperda spray test; settings: 168 h, read-out: activity (mortality)
# Summary of the method: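 Larvae of fall armyworm placed on dried maize leaf sections previously sprayed with emulsified compound (acetone/DMF solvent, water with 1000 ppm emulsifier). Percent of caterpillars killed recorded on day 7, 0–100% scale.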
structure (smiles),measurement,setting,value
CC(NC(=O)c1cc(Cl)cc(S(C)(=O)=O)c1)c1nc(Br)nn1-c1ncccn1 (centres unmarked) [I-34],pest or weed control at 4 pg,[1],100%
same,pest or weed control at 5 µg/cm2,[2],90%
same,mortality at 100 ppm,[3],100%
same,pest or weed control at 100 g/ha,[4],100%
same,mortality at 4 ppm,[5],100%
same,mortality at 100 g/ha,[6],100%
same,mortality at 4 mg/m2,[7],80 to 100%
same,mortality at 20 mg/m2,[7],80 to 100%
same,mortality at 4 mg/m2,[8],80 to 100%
same,mortality at 20 mg/m2,[8],80 to 100%
same,mortality at 20 mg/m2,[9],80 to 100%
Cc1nc([C@H](C)NC(=O)c2csc(Cl)c2)n(-c2ncccn2)n1 [II-24],pest or weed control at 4 pg,[1],100%
same,pest or weed control at 0.02 mg,[1],100%
same,pest or weed control at 5 µg/cm2,[2],100%
same,pest or weed control at 100 g/ha,[10],100%
same,"pest or weed control at 5 µg/cm2, 500 g/ha",[10]; application rate 5 μg/cm^2 (=500 g/ha),100%
same,pest or weed control at 500 g/ha,[4],80%
same,mortality at 500 g/ha,[11],90%
same,mortality at 500 g/ha,[12]; application rate 500 g/ha,90%
same,mortality at 4 mg/m2,[7],80 to 100%
same,mortality at 20 mg/m2,[7],80 to 100%
same,mortality at 4 mg/m2,"[13]; surface concentration 4 mg/m^2, exposure 30 minutes",80 to 100%
same,mortality at 20 mg/m2,"[13]; surface concentration 20 mg/m^2, exposure 30 minutes",80 to 100%
same,mortality at 4 mg/m2,[8],80 to 100%
same,mortality at 20 mg/m2,[8],80 to 100%
CCS(=O)(=O)c1cc(C(=O)N[C@@H](C)c2ncnn2-c2ccc(C#N)cn2)cc(C(F)(F)F)c1 [II-33],pest or weed control at 100 g/ha,[14]; application rate 1 pg/cm^2 (=100 g/ha),100%
same,pest or weed control at 500 g/ha,[14]; application rate 5 pg/cm^2 (=500 g/ha),100%
same,pest or weed control at 4 pg,[1],100%
same,pest or weed control at 0.02 mg,[1],100%
same,mortality at 100 ppm,[3],100%
same,pest or weed control at 100 g/ha,[10],80%
same,pest or weed control at 100 g/ha,[4],100%
same,pest or weed control at 500 g/ha,[4],100%
same,mortality at 4 ppm,[5],100%
same,mortality at 100 g/ha,[6],100%
same,mortality at 500 g/ha,[6]; application rate 500 g/ha,100%
same,mortality at 100 g/ha,[15],100%
same,mortality at 500 g/ha,[15],83%
same,mortality at 100 g/ha,[12]; application rate 100 g/ha,90%
same,mortality at 4 mg/m2,[7],80 to 100%
same,mortality at 20 mg/m2,[7],80 to 100%
